Laboratory results published in patent EP4417616A1, “LXR ANTAGONISTS” (Ospedale San Raffaele S.r.l., priority 2023, dated 2024).

Legend:
[1] = test system: Lewis Lung Carcinoma (LLC); experiment: Treatment of LLC tumor-bearing mice; type: in vivo
Excerpt: (§1) Tumor challenge experiments.

LLC tumor cells = experiment: In vitro growth of LLC tumor cells; type: cell-based, mouse; settings: compared with vehicle
melanoma B16F1-OVA = experiment: Treatment of B16F1-OVA-bearing mice; type: in vivo
Excerpt: as §1

[2] = Blood plasma chemistry analysis (plasma lipids); type: in vivo; settings: tumor-bearing mice; PFM037 (0.4 µg/day); Fig. 5N
Description: Blood Plasma Chemistry Analysis. For all in vivo experiments mouse blood samples were collected via cardiac puncture and isolated plasma was analyzed by the COBAS c311 system (Roche) for plasma lipids.

[3] = test system: bone marrow-purified monocytes; experiment: In vitro mono-DC differentiation of bone marrow-purified monocytes cultured with M-CSF; type: cell-based, mouse; settings: wild type monocytes, 48 hours of culture
[4] = test system: B16F1 melanoma expressing OVA; experiment: Antitumor activity of expanded OT-I T cells in mice bearing B16F1 melanoma expressing OVA; type: in vivo; settings: 7-day established tumors; vs OT-I expanded with IL-2 or IL-7/IL15 without PFM037
Description: To evaluate whether PFM037 induces functional and phenotypic changes of in vitro activated OT-T cells, OT-I T cells were activated in the presence of anti-CD3/CD28 coated beads and IL-2. Forty-eight hours later the cells were differentiated and expanded by IL-7/IL15 (5ng/ml both cytokines) with or without PFM037. Ten, 12 and 15 days later, FACS analysis was performed to evaluate their differentiation status. […] T cells expanded by IL7 and II,15 in the presence of PFM037 also expressed at higher levels the sternness markers Sca1, Tcf1 and CXCR3. […] First, OT-I T cells expanded with IL-2 (effectors) or IL-7/ILIS with or without PFM037 (memory T cells) were injected in mice bearing 7-day established B16F1 melanoma expressing OVA. […] Then, mice bearing MC-38-OVA-liver metastases were treated with vehicle, or OT-I T cells expanded with IL-2 (effectors), or IL-7/IL15 with or without PFM037. Tumor-bearing mice injected with vehicle were all dead 40 days after tumor injection. Twenty percent of tumor-bearing mice treated with OT-I T cells expanded with IL-2 were alive at 60 days, whereas 50% and 80% of tumor-bearing mice treated with IL-7/IL15 with or without PFM037, respectively, were alive at 60 days (Fig. 20). […]

[5] = test system: MC-38-OVA-liver metastases; type: in vivo, mice; settings: 1440 h
Description: . Forty-eight hours later the cells were differentiated and expanded by IL-7/IL15 (5ng/ml both cytokines) with or without PFM037. Ten, 12 and 15 days later, FACS analysis was performed to evaluate their differentiation status. […]. Then, mice bearing MC-38-OVA-liver metastases were treated with vehicle, or OT-I T cells expanded with IL-2 (effectors), or IL-7/IL15 with or without PFM037. Tumor-bearing mice injected with vehicle were all dead 40 days after tumor injection. Twenty percent of tumor-bearing mice treated with OT-I T cells expanded with IL-2 were alive at 60 days, whereas 50% and 80% of tumor-bearing mice treated with IL-7/IL15 with or without PFM037, respectively, were alive at 60 days (Fig. 20). […].

human T cells = experiment: In vitro expansion of activated human T cells by IL-7/IL15; type: cell-based; settings: human T cells expanded by IL-7/IL15 with PFM037 (5 and 10 µM)
RMA lymphoma = experiment: Treatment of RMA tumor-bearing mice; settings: 300 µg i.v. 5 days/week
Description: Analysis of tumor infiltrating cells by flow cytometry. […] Tumors collected 7, 10, 12 or 14 days after injection were cut into small fragments and digested with Liberase TL (66 µg/ml, Roche) and DNAse I (150 µg/ml, Roche) for 25-30 minutes at 37 °C. Digested tissues were filtered by using a 75 µm diameter cell strainer. Single cell suspensions were stained with Live/Dead Violet kit reagents (Molecular Probes) for 30 minutes at 4°C. After washing, the cells were incubated for 5-10 minutes at RT with Fc-blocking solution (Anti-CD16/32, 10 µg/ml mouse Fc Block, BD) and then stained with various antibodies incubated at 4°C for 20 minutes. […] CD209a (5H10), CCR7 (4b12) and F4/80 (BM8) were from eBioscience. Rat IgG, Rat IgG2a, Rat IgG2b, Rat IgM and Hamster isotype control mAbs were used as controls (Biolegends and BD Biosciences). For intracellular staining, cells were incubated with PMA (100 ng/ml) and ionomycin (500 ng/ml) in the presence of 10 µg/ml of Brefeldin for 4 hours. Cells were then fixed using the IC Fixation buffer (eBioscience), permeabilized with 1x Permeabilization buffer (eBiosciences) and stained with anti-IFNy mAb. Samples were run by FACSCanto flow cytometer and analyzed by FlowJo software gating on live cells. FACS sorting was performed by using the FACSAria Fusion (BD)
Tumor challenge experiments. C57BL/6 mice were injected subcutaneously with LLC-Mock (1 ×10^6), LLC-SULT2B1b (1 ×10^6), RMA (2 ×10^5), or B16F1-OVA (2 ×10^5) tumor cells. […] Tumor size was evaluated by measuring perpendicular diameters by a caliper every 2-3 days. Data are reported as the average tumor volume ± SD. In selected experiments tumors were injected in Ccr2^-/-mice.
Treatment of tumor-bearing mice with LXR antagonists alone or with immunotherapy. Tumor-bearing mice were treated with 25-HC-3S or PFM037 6-7 days after tumor challenge. After 6-7 days, mice were randomly assigned to either treatment or vehicle groups. Mice were injected with 300 µg of either compound given i.v. for 5 days/week. […] B16F1-OVA-bearing mice were treated with 400 µg of PFM037 for 5 days/week. For controls of mAb experiments, mice were injected with 250 µg of rat IgG2a isotype control antibody. […] Tumors were collected and measured 14 days after tumor challenge.

LLC tumors = experiment: NMR lipidomic profiling of LLC tumors; settings: PFM037-treated vs vehicle-treated LLC tumors
Description: Extraction of the lipidic and polar fractions from tumor tissues. […] They were resuspended in 170 µL of H2O and 700 µL of methanol and sonicated for 60 sec. Then, 350 µL of chloroform were added and mixed the samples on an orbital shaker in ice for 10 minutes. After that, 350 µL of H2O/chloroform (1:1, v/v) were added to each suspension and centrifuged at 4000 rpm for 10 minutes at 4°C. Thereafter, the aqueous (polar) and lipidic (non-polar) phases were collected separately, transferred to a glass vial and evaporated.
^1H NMR spectra acquisition and data analysis. All the lipidic and polar samples were analyzed using Nuclear Magnetic Resonance (NMR). The lipidic fractions were dissolved in 700 µL of deuterated chloroform (CDCl3) and 0.03 volume percentage of tetramethylsilane (TMS) and inserted in NMR tubes whereas the polar fractions were dissolved in 630 µL of PBS-D2O with the pH adjusted to 7.20, and 70 µL of trimethylsilylpropanoic acid (TSP) (1% in D2O). TMS and TSP were used as the internal standards. […] All ^1H NMR spectra were manually phased and baseline-corrected and referenced to the CH3 resonance of TSP or TMS at 0 ppm. The spectral 0.50-8.60 ppm region of ^1H-NMR spectra was integrated in buckets of 0.04 ppm by AMIX package (Bruker, Biospin, Germany). […]

[6] = LLC-bearing mice, 300 µg i.v. 5 days/week from day 6-7, vs vehicle

SMILES: CC(C)CC[C@H](O)[C@@H](C)[C@H]1CC[C@H]2[C@@H]3CC=C4C[C@@H](OS(=O)(=O)[O-])CC[C@]4(C)[C@H]3CC[C@]12C.[Na+] [PFM037, 22(S)-Hydroxycholesterol-3-sulfate sodium salt]
- absolute numbers of tumor-infiltrating mono-DCs [1, 6]: Higher
- tumor growth [1, 6]: delay of tumor growth
- tumor growth ([1]; established LLC tumors, 300 µg/mouse every other day, Fig. 24B): able to control LLC tumor growth
- LLC growth in wild type BM-chimera mice ([1]; wild type BM-chimera mice, compared to vehicle, Fig. 7C): better control of LLC growth
- in vitro growth of LLC tumor cells (LLC tumor cells): grew in a similar manner
- antitumor activity, 400 µg compared with 300 µg (melanoma B16F1-OVA): much stronger
- tumor growth (melanoma B16F1-OVA; 400 µg 5 days/week): delayed the growth
- plasma HDL [2]: reduced levels
- plasma LDL [2]: did not change
- plasma not esterified fatty acids [2]: reduced levels
- plasma total cholesterol [2]: reduced levels
- plasma triglycerides [2]: reduced levels
- CD11c marker expression [3]: expressed CD11c marker
- tumor growth control by OT-I T cells expanded with PFM037 [4]: significantly better
- tumor-bearing mice alive at 60 days [5]: 50%
- markers associated to memory/stem cell memory T cells (human T cells): higher levels
- numbers of tumor-infiltrating mono-DCs (RMA lymphoma): Higher
- tumor growth (RMA lymphoma; tumor weight at sacrifice): tumor growth control
- proton signals of ω-3 fatty acid docosahexaenoic acid and its derivatives (LLC tumors): lower levels
- proton signals of ω-6 fatty acid arachidonic acid and its derivatives (LLC tumors): enriched
